Here are results for one compound from patent US12023335B2, “Method for treating pancreatic cancer” (PTC THERAPEUTICS, INC., priority 2018, dated 2024).

The subject of the assay is BMI-1. Put plainly: Western blot of BMI-1 levels in PDA cell lines. Type of assay: cell-based, human. The settings on record: Aspc1, MiaPaCa-2, Panc1 cells; 0.1 μM or 1.0 μM, 24 hours (FIG. 10a). As for the experimental part: Western blotting was carried out on lysates isolated from treated cells. Cells were lysed using RIPA buffer (50 mM Tris, pH 7.4, 150 mM NaCl, 1% Nonidet P-40, 0.1% SDS, 0.5% deoxycholate) supplemented with cOmplete™ EDTA-free Protease Inhibitor Cocktail (Sigma, 11836170001) and Halt™ Phosphatase Inhibitor Cocktail (ThermoFisher, 78420). Lysates were quantified using the Pierce BCA Protein Assay Kit (ThermoFisher, 23227), diluted in SDS sample buffer, resolved by SDS-PAGE (15-30 μg/sample), and transferred onto PVDF membranes. Membranes were blocked with 5% w/v nonfat dry milk in TBS-T (0.1% Tween20) and primary antibodies were incubated overnight at 4° C., diluted in 5% BSA in TBS-T at the indicated concentrations. HRP-conjugated secondary antibodies were incubated in blocking buffer for 1 hour at room temperature before detection using Super Digital-ECL™ substrate solution (Kindle Biosciences, R1002). (FIG. 5b, FIG. 10a and FIG. 11b)
Western Blot Antibodies: • Bmi1: Cell Signaling, #5856, 1:1000 • Vinculin: Cell Signaling, #4650S, 1:1000 • Beta-tubulin: Cell Signaling, #2146S, 1:1000 P-Glycoprotein Substrate Activity Experiment

`Cc1nc2ccc(F)cc2n1-c1nc(N)c(F)c(Nc2ccc(C(F)(F)F)cc2)n1` [Compound 1, 5-fluoro-2-(6-fluoro-2-methyl-1H-benzo[d]imidazol-1-yl)-N4-[4-(trifluoromethyl)phenyl]pyrimidine-4,6-diamine]: the “BMI-1 levels relative to vinculin” value was “consistent reduction in BMI-1 protein expression in various cell types”.
